Values of other authors as cited in US20220003741A1, “ORAL WASH FOR ORAL FLUID COLLECTION AND ANALYSIS AND METHODS OF USE THEREOF” (priority 2018, published 2022).

Columns and labels:
[1] = versus aripiprazole and dehydro aripiprazole
[2] = not given; remark: listed apart in the source

O=C(O)CCCOc1ccc2c(c1)NC(=O)CC2 [OPC-3373]
water solubility compared with parent compound aripiprazole and dehydro aripiprazole [1]: much more water soluble

CCCCCc1cc(O)c2c(c1)OC(C)(C)[C@@H]1CCC(C)=C[C@@H]21 [THC]
fraction of THC excreted in the feces (feces): More than 55% | fraction of THC excreted in the urine (urine): approximately 20%

CN1CCCC1c1cccnc1 (centres unmarked) [nicotine]
time to reach the brain after inhalation ([2]; after inhalation, crosses the blood-brain barrier): 10 to 20 s | elimination half-life of nicotine in the body ([2]; in vivo): around two
